In experiment [1] the test system is green foxtail (Setaria viridis) (SETVI). In words: post-emergent herbicidal test, green foxtail. Type of experiment: in vivo. The conditions noted are these: Setaria viridis, post-emergence, post-emergent, 17-21 days after application, read-out: SETVI percent control; for pest or weed control at 4000 g/ha: 4.0 kg/ha; for pest or weed control at 1000 g/ha: 1.0 kg/ha (*). An outline of the steps: (§1)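 Greenhouse seedlings (14 h photoperiod, 29 °C day, 21 °C night) received compound at 1 or 4 kg/ha with Tween 20 surfactant. Weed control, as % of total injury versus untreated plants, was recorded at 17–21 days.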

The test system of experiment [2] is barnyard grass (Enchinochloa crusgalli) (ECHCG). As to the kind of experiment: post-emergent herbicidal test, barnyard grass. Type of experiment: in vivo. As to conditions: Echinochloa crus-galli, post-emergence, post-emergent, 17-21 days after application, read-out: ECHCG percent control; for pest or weed control at 4000 g/ha: 4.0 kg/ha; for pest or weed control at 1000 g/ha: 1.0 kg/ha (*). The essentials: as §1

Experiment [3] relates to farnesyl pyrophosphate synthase in daffodil chromoplasts. As to the kind of experiment: inhibition of farnesyl pyrophosphate synthase in daffodil chromoplasts (14C-isopentenyl pyrophosphate incorporation). The experiment is classed as biochemical, Narcissus pseudonarcissus. As to conditions: unit inferred, IC50 values in nM, read-out: IC50. An outline of the steps: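 Daffodil chromoplasts in pH 7.7 sucrose/MgCl2/HEPES buffer with cysteine, NaF and BSA, started with ~3 micromolar 14C-isopentenyl pyrophosphate, 30 min at 30° C. Butanol-extractable radioactivity counted by scintillation; % residual activity calculated against zero-time and end-point no-inhibitor controls.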

Experiment [4] relates to yellow nutsedge (Cyperus esculentus) (CYPES). In words: post-emergent herbicidal test, yellow nutsedge. Type of experiment: in vivo. As to conditions: Cyperus, post-emergence, post-emergent, 17-21 days after application, read-out: CYPES percent control; for pest or weed control at 4000 g/ha: 4.0 kg/ha; for pest or weed control at 1000 g/ha: 1.0 kg/ha (*). The essentials:
as §1

Experiment [5] deals with wild oat (Avena fatua) (AVEFA). As to the kind of experiment: post-emergent herbicidal test, wild oat. The experiment is classed as in vivo. The conditions noted are these: Avena fatua, post-emergence, post-emergent, 17-21 days after application, read-out: AVEFA percent control; for pest or weed control at 4000 g/ha: 4.0 kg/ha; for pest or weed control at 1000 g/ha: 1.0 kg/ha (*). An outline of the steps:
as §1

Experiment [6] has as its system morningglory (Ipomoea spp.) (IPOSS). As to the kind of experiment: post-emergent herbicidal test, morningglory. The experiment is classed as in vivo. The conditions noted are these: Ipomoea, post-emergence, post-emergent, 17-21 days after application, read-out: IPOSS percent control; for pest or weed control at 4000 g/ha: 4.0 kg/ha; for pest or weed control at 1000 g/ha: 1.0 kg/ha (*). The essentials:
as §1

The test system of experiment [7] is velvetleaf (Abutilon theophrasti) (ABUTH). As to the kind of experiment: post-emergent herbicidal test, velvetleaf. Type of experiment: in vivo. The conditions noted are these: Abutilon theophrasti, post-emergence, post-emergent, 17-21 days after application, read-out: ABUTH percent control; for pest or weed control at 4000 g/ha: 4.0 kg/ha; for pest or weed control at 1000 g/ha: 1.0 kg/ha (*). An outline of the steps:
as §1

For experiment [8], the system named is wild mustard (Brassica kaber), also known as Sinapis arvensis (SINAR). In words: post-emergent herbicidal test, wild mustard. Type of experiment: in vivo. As to conditions: Brassica, post-emergence, post-emergent, 17-21 days after application, read-out: SINAR percent control; for pest or weed control at 4000 g/ha: 4.0 kg/ha; for pest or weed control at 1000 g/ha: 1.0 kg/ha (*). An outline of the steps: as §1

These results are taken from patent publication US5756423A, “Method of controlling plants by inhibition of farnesyl pyrophosphate synthase” (Zeneca Limited, priority 1997, dated 1998).

The term IC50 denotes the concentration that inhibits the measured activity by half.

Read-outs that look alike come from different tables or passages of the source. Where only a bound is given, the exact number is not on record here.

As to `O=P(O)(O)C(O)(C1CCCN1)P(=O)(O)O` (centres unmarked) [Compound 2], the pest or weed control at 4000 g/ha in experiment [1] is 60%; in experiment [2], 0%; in experiment [4], 5%; in experiment [5], 0%; in experiment [6] it was 0%; in experiment [7], 0%. Further, the pest or weed control at 4000 g/ha in experiment [8] came to 90%. Also, the concentration for half-maximal inhibition (IC50) in experiment [3] (Table I) and in experiment [3] (Table II) was 933 nM in each case.

Consider `CCCCNCC(P(=O)(O)O)P(=O)(O)O` [Compound 14], for which the pest or weed control at 1000 g/ha in experiment [1] was found to be 95%; in experiment [2] it was 90%; in experiment [4], 15%; in experiment [5], 70%; in experiment [6], 10%; in experiment [7], 20%. Also, the pest or weed control at 1000 g/ha in experiment [8] stood at 85%. The concentration for half-maximal inhibition (IC50) in experiment [3] (Table I) and in experiment [3] (Table II) was 347 nM each time.

As to `CC(O)CNCC(P(=O)(O)O)P(=O)(O)O` (centres unmarked) [Compound 66], the pest or weed control at 1000 g/ha in experiment [1] came out at 98%; in experiment [2], 95%; in experiment [4], 60%; in experiment [5], 90%; in experiment [6], 75%; in experiment [7] it was 90%. Further, the pest or weed control at 1000 g/ha in experiment [8] worked out at 100%. For the same molecule, the concentration for half-maximal inhibition (IC50) in experiment [3] (Table II) amounted to 58 nM.

In the case of `CC1CCN(CC(P(=O)(O)O)P(=O)(O)O)CC1` [Compound 30], the pest or weed control at 1000 g/ha was found to be 95% in experiment [1]; 90% in experiment [2]; 5% in experiment [4]; 90% in experiment [5]; 30% in experiment [6]; 5% in experiment [7]. In addition, the pest or weed control at 1000 g/ha in experiment [8] was determined as 100%. In addition, the IC50 in experiment [3] (Table I) and in experiment [3] (Table II) was 266 nM in each case.

For the molecule `O=P(O)(O)C(CNNc1c(Cl)cc(C(F)(F)F)cc1Cl)P(=O)(O)O` [Compound 36], the pest or weed control at 4000 g/ha in experiment [1], in experiment [2], in experiment [4], in experiment [5], in experiment [6] and in experiment [7] was 0% in each case. Further, the pest or weed control at 4000 g/ha in experiment [8] worked out at 0%. Also, the IC50 in experiment [3] (Table I) and in experiment [3] (Table II) was above 500000 nM throughout.

In the case of `CC1CCCC1NCC(P(=O)(O)O)P(=O)(O)O` (centres unmarked) [Compound 50], the pest or weed control at 1000 g/ha in experiment [1] amounted to 85%; in experiment [2], 60%; in experiment [4], 5%; in experiment [5] it was 50%; in experiment [6] it was 5%; in experiment [7] it was 5%. For the same molecule, the pest or weed control at 1000 g/ha in experiment [8] was 85%. Besides, the IC50 in experiment [3] (Table I) and in experiment [3] (Table II) was 232 nM each time.

`O=P(O)(O)C(CN1C=NCCC1)P(=O)(O)O` [Compound 65]: the pest or weed control at 1000 g/ha in experiment [1] amounted to 100%; in experiment [2] it was 100%; in experiment [4], 5%; in experiment [5] it was 95%; in experiment [6], 100%; in experiment [7] it was 100%. Besides, in experiment [8], the pest or weed control at 1000 g/ha stood at 100%. Further, the IC50 in experiment [3] (Table I) and in experiment [3] (Table II) was 50 nM each time.

Turning to `O=P(O)(O)C(CN1CCCCCC1)P(=O)(O)O` [Compound 29], the pest or weed control at 1000 g/ha in experiment [1] is 60%; in experiment [2] it was 60%; in experiment [4], 0%; in experiment [5] it was 60%; in experiment [6] it was 15%; in experiment [7], 0%. Further, the pest or weed control at 1000 g/ha in experiment [8] is 85%. The IC50 in experiment [3] (Table I) and in experiment [3] (Table II) was 360 nM in each case.

`CC1CCC(C)N1CC(P(=O)(O)O)P(=O)(O)O` (centres unmarked) [Compound 11]: the pest or weed control at 4000 g/ha was found to be 50% in experiment [1]; 50% in experiment [2]; 0% in experiment [4]; 30% in experiment [5]; 30% in experiment [6]; 0% in experiment [7]. The pest or weed control at 4000 g/ha in experiment [8] came to 95%. In addition, the IC50 in experiment [3] (Table I) was determined as 650 nM; in experiment [3] (Table II) it was 610 nM.
